# Where “and” joins values, the source holds several entries; their conditions need not be identical. Identical values can stand only once.
# B1: 5×TAPE-1: TAPE-1 array with five monomers, SEQ ID NO: 60 (nucleic acid)
# DNA: GGATGATGGTGAGCACGTGATGGTGAGCACGTGATGGTGAGCACGTGATGGTGAGCACGTGATGGTGAGCACGTGATGGTGAGC
# modifications: listed as DNA, chemistry not fully specified; the letters are possibly those of the target site
# Columns and labels:
# Assay type in all cases: cell-based
# HEK293T cells [1] = experiment: Screen of 48 3×TAPE constructs: efficiency and sequential error rate; conditions: for Sequential error rate (in words): 48 tested tapes
# Procedure: In each of these 48 constructs, a 3×TAPE region was accompanied by a pegRNA-expressing cassette designed to target it with a 4-6 bp insertion (16 possible 2-bp barcodes followed by a 2-4 bp key sequence). HEK293T cells were transiently transfected with PE2-encoding plasmid and a pool of 48 pegRNA-by-3×TAPE constructs and harvested them after four days. The 3×TAPE region was PCR-amplified from genomic DNA and sequenced.
# Two quantities were calculated for each 3×TAPE array: (1) efficiency, calculated by summing all edited reads and dividing by the total number of reads; and (2) sequential error rate, calculated by summing all edited reads inconsistent with sequential, directional editing and dividing by the total number of edited reads (FIG. 7B). […] Indeed, across the full experiment, a longer key sequence was associated with a lower sequential error rate (FIG. 7C). […] Performance characteristics were highly consistent when the experiment was repeated with integration rather than transient transfection of the constructs (FIG. 7E).
# HEK293T cells [2] = experiment: DNA Typewriter: sequential prime editing of integrated TAPE-1 arrays, pegRNA pool + PE2, amplicon sequencing; conditions: for Overall editing rate: reads exhibiting any editing, of all reads: pegRNA pool + PE2, four days
# Text: To test this idea, DNA Tape (“TAPE-1”) was designed by modifying a spacer sequence previously shown to be highly amenable to prime editing by the PE2 enzyme (HEK293 target 3 or HEK3). In TAPE-1, a 3-bp key (GGA) is followed by one tandem array of a 14-bp monomer (TGATGGTGAGCACG) (SEQ ID NO: 57) that includes the PAM sequence (TGG) at positions 4-6. At the 5′-most end of the TAPE-1 array, the key sequence, the first 14-bp monomer, and the first 6 bases of the subsequent 14-bp monomer, collectively comprise an intact 20-bp spacer and PAM (FIG. 1A). A set of 16 pegRNAs was further designed to target TAPE-1, with each pegRNA programming a distinct 5-bp insertion (FIG. 1B). The first 2-bp of the insertion is unique to each of the 16 pegRNAs. The remaining 3-bp of the insertion corresponds to the key (GGA). The inventors reasoned that when a pegRNA/PE2-mediated insertion occurred at the active TAPE-1 site, it would: (1) record the identity of the pegRNA via the 2-bp portion of the insertion; (2) inactivate the current active site by disrupting its sequence; and (3) activate the next monomer along the array, as the newly inserted GGA key, together with the subsequent […], creates an intact 20-bp spacer and PAM. In the next iteration of genome editing, a pegRNA-mediated insertion to the second monomer would be recorded while also moving the type-guide to the third monomer, and then to the fourth, the fifth, and so on (FIG. 1C).
# TAPE-1 arrays were synthesized and cloned with varying numbers of monomer units (2×TAPE-1, 3×TAPE-1, 5×TAPE-1), and stably integrated these arrays into the genome of HEK293T cells via the piggyBAC system. The resulting cells were transiently transfected with a pool of plasmids designed to express PE2 (pCMV-PE2-P2A-GFP; Addgene #132776) and sixteen pegRNAs, each programmed to insert an NNGGA barcode to TAPE-1, and harvested them after four days. The TAPE-1 region was PCR-amplified from genomic DNA and sequenced.
# For each TAPE-1 array, the sequencing reads were categorized into those in which: (1) no editing occurred; (2) the observed pattern was consistent with sequential, directional editing; or (3) the observed pattern was inconsistent with sequential, directional editing (FIG. 1D-F; Table 1). […] However, within the set of reads showing edits, the data were overwhelmingly consistent with sequential, directional editing. For example, with 2×TAPE-1, the second monomer was edited in 22.8±1.7% of reads in which the first monomer was also edited (FIG. 1D). In contrast, the second monomer was only edited in 0.6% of reads in which the first monomer was not edited. […] Data obtained from 3×TAPE-1 and 5×TAPE-1 were also consistent with sequential genome editing. For example, 98.5% (3×TAPE-1) and 99.0% (5×TAPE-1) of reads that were edited at the second monomer were also edited at the first monomer, while 97.6% (3×TAPE-1) and 98.8% (5×TAPE-1) of reads that were edited at the third monomer were also edited at the first and second monomers (FIG. 1E-1F).
# Table 1. Read counts and editing efficiencies for 2×TAPE-1, 3×TAPE-1, and 5×TAPE-1. Sequencing reads were grouped based on the observed editing pattern. For example, reads from 2×TAPE-1 array were categorized into four groups: (A) no edit at either TAPE-1 site (‘OO’); (B) 5-bp insertion at the first TAPE-1 site only (‘XO’); (C) 5-bp insertion at the second TAPE-1 site only (‘OX’); or (D) 5-bp insertions at both TAPE-1 sites (‘XX’). For reads from 5×TAPE-1 array, editing groups were simplified by categorizing directional and iterative editing pattern (OOOOO, XO, XXO, XXXO, XXXXO, and XXXXX) and the erroneous editing patterns (OX, NOX, NNOX, and NNNOX, where N can be either O or X). Editing efficiencies at each site were calculated as the fraction of reads with an edit at the site over the total number of reads in which the site had been activated via insertion of the ‘key’ that completed the spacer sequence. […]
# iPE2(+) HEK293T = experiment: Monoclonal lineage tracing, TargetBC-5×TAPE-1 arrays, sc-RNA-seq; conditions: after 25 days of editing, Dox
# Text: The ordered manner in which edits accrue with DNA Typewriter, the use of a prime editor with a Cas9 nickase to insert one of many possible “symbols” at the type-guide, the predefined sequences and locations of potential edits, and the fact that one-and-only-one monomer is an active type-guide at any given moment, have the potential to address all of these limitations at once. […] First, a HEK293T cell line that expresses doxycycline (Dox)-inducible PE2 (iPE2(+) HEK293T) was constructed. A lentiviral construct was designed and cloned that includes: (1) the 5×TAPE-1 sequence, associated with a random 8-bp barcode region (TargetBC) at its 5′-end; (2) a transcription cassette for the TargetBC-5×TAPE-1 with a reverse transcription capture sequence for enrichment during sc-RNA-seq; and (3) a constitutive pegRNA expression cassette that targets TAPE-1 for a 6-bp insertion (NNNGGA; referred to below as InsertBC; GGA is the key sequence for TAPE-1) (FIG. 4A). Lentiviral transduction of this construct to the cell line at a high multiplicity of infection (MOI) was followed by serial dilution to isolate a monoclonal cell line that grew from 1 cell to ˜1.2M cells via ˜20 doublings over 25 days in the presence of Dox (FIG. 4B; FIG. 10A). After harvesting, sc-RNA-seq was used to recover and sequence multiple TargetBC-5×TAPE-1 arrays from each of ˜12,000 cells. […]
# [3] = 5-bp insertions, conditional on site activated, per replicate, listed as 3xTAPE-1
# [4] = 5-bp insertions, conditional on site activated, per replicate, listed as 5xTAPE-1
# [5] = 6-bp ins., per replicate, listed as 5xTAPE-1
molecule,measurement,setting,value
"TAPE-27: DNA Tape design, FANCF-based spacer, SEQ ID NO: 32 (DNA GAGATCCGGTCTGCAGCATCCGGTCTGCAGC; listed as DNA, chemistry not fully specified; the letters are possibly those of the target site)",Greater efficiency than TAPE-1,HEK293T cells [1]; 3×TAPE,over 50%
same,Greater sequential error rate than TAPE-1,HEK293T cells [1]; 3×TAPE,2 fold
"TAPE-6: DNA Tape design from HEK3 with 4-bp key, SEQ ID NO: 7 (DNA GGACTGATGGTGAGACGTGATGGTGAGACG; listed as DNA, chemistry not fully specified; the letters are possibly those of the target site)",Sequential error rate (in words),HEK293T cells [1],lower sequential error rate than TAPE-1
"2×TAPE-1: TAPE-1 array with two monomers, SEQ ID NO: 58 (DNA GGATGATGGTGAGCACGTGATGGTGAGCACGTGATGGTGAGC; listed as DNA, chemistry not fully specified; the letters are possibly those of the target site)","Second monomer edited, in reads in which the first monomer was also edited",HEK293T cells [2],22.8±1.7%
same,"Second monomer edited, in reads in which the first monomer was not edited",HEK293T cells [2],0.6%
same,Editing efficiencies: Site 2,"HEK293T cells [2]; 5-bp insertions, conditional on site activated, per replicate, listed as 2xTAPE-1",0.211 and 0.244 and 0.229
same,Editing efficiencies: Site 1,"HEK293T cells [2]; 5-bp insertions, fraction of reads edited at the site over reads in which the site was activated, per transfection replicate, listed as 2xTAPE-1",0.053 and 0.044 and 0.043
same,"Overall editing rate: reads exhibiting any editing, of all reads",HEK293T cells [2],4.7±0.5%
"3×TAPE-1: TAPE-1 array with three monomers, SEQ ID NO: 59 (DNA GGATGATGGTGAGCACGTGATGGTGAGCACGTGATGGTGAGCACGTGATGGTGAGC; listed as DNA, chemistry not fully specified; the letters are possibly those of the target site)",Reads edited at the second monomer that were also edited at the first monomer,HEK293T cells [2],98.5%
same,Reads edited at the third monomer that were also edited at the first and second monomers,HEK293T cells [2],97.6%
same,Editing efficiencies: Site 2,HEK293T cells [2]; [3],0.237 and 0.231 and 0.240
same,Editing efficiencies: Site 3,HEK293T cells [2]; [3],0.170 and 0.189 and 0.221
same,Editing efficiencies: Site 1,"HEK293T cells [2]; 5-bp insertions, fraction of reads edited at the site over reads in which the site was activated, per transfection replicate, listed as 3xTAPE-1",0.059 and 0.051 and 0.047
same,"Overall editing rate: reads exhibiting any editing, of all reads",HEK293T cells [2],5.2±0.6%
"TAPE-1: DNA Tape: 3-bp key GGA and tandem array of 14-bp monomer TGATGGTGAGCACG, from HEK3; SEQ ID NO: 2 (DNA GGATGATGGTGAGCACGTGATGGTGAGCACG; listed as DNA, chemistry not fully specified; the letters are possibly those of the target site)",Sequential error rate (in words),HEK293T cells [1],one of the lowest sequential error rates among the 48 tested tapes
same,Editing rate of the first TAPE-1 monomer,HEK293T cells [2]; PE2 and pegRNAs,~6%
same,"Editing rates of the second or third monomers, conditional on preceding monomers already edited",HEK293T cells [2]; PE2 and pegRNAs,~20%
same,Fifth sites edited (mean),iPE2(+) HEK293T,19.7%
same,First sites of active arrays edited (mean),iPE2(+) HEK293T,96.8%
B1,Reads edited at the second monomer that were also edited at the first monomer,HEK293T cells [2],99.0%
same,Reads edited at the third monomer that were also edited at the first and second monomers,HEK293T cells [2],98.8%
same,Editing efficiencies: Site 2,HEK293T cells [2]; [4],0.210 and 0.212 and 0.206
same,Editing efficiencies: Site 3,HEK293T cells [2]; [4],0.151 and 0.144 and 0.154
same,Editing efficiencies: Site 4,HEK293T cells [2]; [4],0.129 and 0.119 and 0.150
same,Editing efficiencies: Site 5,HEK293T cells [2]; [4],0.098 and 0.194 and 0.175
same,Editing efficiencies: Site 1,"HEK293T cells [2]; 5-bp insertions, fraction of reads edited at the site over reads in which the site was activated, per transfection replicate, listed as 5xTAPE-1",0.066 and 0.059 and 0.051
same,Editing efficiencies: Site 1,HEK293T cells [2]; [5],0.055 (2×) and 0.057
same,Editing efficiencies: Site 2,HEK293T cells [2]; [5],0.180 and 0.177 and 0.181
same,Editing efficiencies: Site 3,HEK293T cells [2]; [5],0.083 and 0.078 and 0.089
same,Editing efficiencies: Site 4,HEK293T cells [2]; [5],0.099 and 0.059 and 0.265
same,Editing efficiencies: Site 5,HEK293T cells [2]; [5],0.364 and 0.900 and 0.000
same,"Overall editing rate: reads exhibiting any editing, of all reads",HEK293T cells [2],5.9±0.8%

# — US20240355418A1, “MULTIPLEX, TEMPORALLY RESOLVED MOLECULAR SIGNAL RECORDER AND RELATED METHODS” (University of Washington, priority 2021, published 2024)
